From US20030186890A1, “Amphipathic linear peptides and formulations containing said peptides” (SYNT:EM S.A., priority 2000, published 2003)
Values joined by “and” are separate entries in the source; they are usually repeats but may differ in a detail not shown here. Equal values may be shown once.

Assays:
[1] = mouse, in vivo
Description: This is a rapid and sensitive method to evaluate the penetration of various compounds in the central nervous system. Young mice (25-30 g, Iffa-Credo; l'Arbresle, France) were anaesthetised. After exposure of the common carotid, the right external carotid artery was tied at the bifurcation with the internal carotid and the common carotid was tied between the heart and the catheter implantation site (polyethylene catheter, ID: 0.76). The catheter previously filled with a heparin solution (100 units/ml) was inserted into the common carotid. The mice were infused with the infusion buffer (128 mM NaCl, 24 mM NaHCO3, 4.2 mM KCl, 2.4 mM NaH2PO4, 1.5 mM CaCl2, 0.9 mM MgSO4 and 9 mM D-glucose). The buffer was filtered and then bubbled with a mixture containing 95% O2/5% CO2 to maintain the pH close to 7.4 and supply the brain with oxygen during the infusion.
In each product, the doxorubicin was radiolabelled with carbon 14 (specific activity: 9.4 μCi/mg, Amersham, France) . The products were infused at a concentration of 0.33 μCi/ml or 0.035 mg/mouse.
Just before the start of infusion, the heart was stopped by ventricular section to prevent infusate reflux during infusion. The right hemisphere was then infused at a rate of 10 ml/min for 60 seconds, after which the mouse was decapitated. […]

K562 cells = experiment: Cell penetration of NBD-labelled peptides by flow cytometry (FACS); assay type: cell-based; conditions: for penetration (mean fluorescent intensity): NBD-labelled peptide 1 μM, 37° C.; for penetration relative to that of SynB1: at 60 min; for penetration compared with the reference peptide (in words): irrespective of the time interval
Description: Cell penetration of the peptides was studied by flow cytometry. The K562 cells were cultured in RPMI medium with 10% foetal calf serum. The cells were diluted to 0.3×10^6 cells per ml 24 hours before the experiment. The cell penetration was measured by flow cytometry using a FACScan (Becton Dickinson, USA). The peptides labelled with NBD (final concentration 1 μM) were incubated with the K562 cells (5×10^5 cells per ml) in Optimem medium at 37° C. for variable periods (the final volume was 0.5 ml). After incubation, the cells were washed twice and then resuspended in 0.5 ml of cold PBS. The penetration was then analysed by FACS. The fluorophors were excited at 488 nm and the fluorescence measured at 525 nm. A histogram of the fluorescent intensity (for 1×10^4 cells) was obtained and the mean distribution considered to be representative of the quantity of peptide associated with the cells.

Substance	increase of passage into the brain (influx constant Kin) versus doxorubicin alone [1] [times]	penetration (mean fluorescent intensity) (K562 cells; Time 0 min)	penetration (mean fluorescent intensity) (K562 cells; Time 5 min)	penetration (mean fluorescent intensity) (K562 cells; Time 10 min)	penetration (mean fluorescent intensity) (K562 cells; Time 30 min)	penetration (mean fluorescent intensity) (K562 cells; Time 60 min)	penetration relative to that of SynB1 (K562 cells) [times]	penetration compared with the reference peptide (in words) (K562 cells)
Doxo-(RGGRLSYSCitCitCitFSTSTGR) [Doxo-SynB1/3Cit]	20							
R G G R L A Y L R R R W A V L V G R (RGGRLAYLRRRWAVLVGR) [SM3979]		4	75	95	100	114	9	penetrate much more effectively
R G G R L S Y S R R R F S T S T G R (RGGRLSYSRRRFSTSTGR) [SynB1, reference compound]		4	7	7	8	12		
R G G R L V Y V R R R W V V V V G R (RGGRLVYVRRRWVVVVGR) [SM3980]		4	34	42	54	62	5	penetrate much more effectively
R L R W R L R L R F (RLRWRLRLRF) [SM4292]		4.5	140	140	141	146		
R L R W R L R Y R F (RLRWRLRYRF) [SM4291]		4.5	91	99	107	118		
R R L S Y S R R R F (RRLSYSRRRF) [SynB3, reference compound]		4 and 4.5	9.5 and 12	10 and 13	12 and 15	16 and 23		
R R L W L L R R R F (RRLWLLRRRF) [SM4288]		4	33	38	53	61		
R R L W R L L R R F (RRLWRLLRRF) [SM4290]		4	147	168	366	371		
R R L W R L Y R R F (RRLWRLYRRF) [SM4289]		4	63	80	107	135		
R R L W Y L R R R F (RRLWYLRRRF) [SM4287]		4	29	34	50	60		
RKLWYLRKRF [SM4293]		4.5	20	23	29	31		
